Read-outs that look alike come from different tables or passages of the source.
System: Phytophthora infestans
Type: in vivo
Settings: individual active compound, tomato leaves, protective, evaluated after 6 days

SMILES: Cc1ccc(-c2c(Cl)nc(C#N)n2S(=O)(=O)N(C)C)cc1 [Ia, cyazofamid]
- Efficacy in % of the untreated control (0.05 ppm in the spray liquor): 58%
- Efficacy in % of the untreated control (0.1 ppm in the spray liquor): 74%
- Efficacy in % of the untreated control (0.2 ppm in the spray liquor): 84%

From patent US20040029944A1 (priority 2001, published 2004)
